Measured values from US10844049B2, “GLP-1R agonists and uses thereof” (QILU REGOR THERAPEUTICS INC., priority 2018, dated 2020).
One block for each compound: values may come before it.

Biological target: GLP1R (Homo sapiens, UniProt P43220)
Test: GLP1R cAMP HTRF assay, HEK293/GLP-1R/CRE/Luc (HEK293T cells)
Assay type: cell-based
Conditions: read-out: EC50
Summary of the method: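 cAMP accumulation via HTRF after 30 min, 37 °C exposure of 1000 receptor-expressing cells/well to compound (0.5% DMSO final) in IBMX (500 μM)/0.1% BSA DPBS.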

GLP1R, sequence (P43220 24-463): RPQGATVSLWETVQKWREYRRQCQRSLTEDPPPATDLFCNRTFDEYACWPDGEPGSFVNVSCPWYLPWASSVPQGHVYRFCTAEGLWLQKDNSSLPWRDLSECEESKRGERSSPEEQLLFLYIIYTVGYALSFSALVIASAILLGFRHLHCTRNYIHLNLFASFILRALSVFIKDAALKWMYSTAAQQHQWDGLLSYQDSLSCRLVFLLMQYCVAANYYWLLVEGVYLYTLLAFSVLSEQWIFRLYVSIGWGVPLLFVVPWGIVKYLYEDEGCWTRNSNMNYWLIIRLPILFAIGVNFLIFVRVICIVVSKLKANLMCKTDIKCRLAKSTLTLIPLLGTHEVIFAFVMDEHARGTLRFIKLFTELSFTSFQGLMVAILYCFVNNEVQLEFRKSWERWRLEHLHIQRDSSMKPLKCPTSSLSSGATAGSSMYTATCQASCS

SMILES: Cn1ccnc1Cn1c(CN2CCN(c3ccc4c(n3)N(Cc3ccc(Cl)cc3F)CCO4)CC2)nc2ccc(C(=O)O)cc21 [Compound 5, 2-((4-(4-(4-chloro-2-fluorobenzyl)-3,4-dihydro-2 h-pyrido[3,2-b][1,4]oxazin-6-yl)piperazin-1-yl)methyl)-1-((l-methyl-1 h-imidazol-2-yl)methyl)-1 h-benzo[d] imidazole-6-carboxylic acid]
EC50: > 1000 nM

SMILES: O=C(O)c1ccc2nc(CN3CCN(c4cc(OCc5ccc(Cl)cc5F)ccc4F)CC3)n(C[C@@H]3CCO3)c2c1 [Compound 186, (S)-2-((4-(5-(4-chloro-2-fluorobenzyloxy)-2-fluorophenyl)piperazin-1-yl)methyl)-1-(oxetan-2-ylmethyl)-1H-benzo[d]imidazole-6-carboxylic acid]
EC50: ≤ 150 nM

SMILES: O=C(O)c1ccc2nc(CN3CC=C(c4ncc(F)c(NCc5ccc(Cl)cc5F)n4)CC3)n(C[C@@H]3CCO3)c2c1 [Compound 122, (S)-2-((4-(4-(4-chloro-2-fluorobenzylamino)-5-fluoropyrimidin-2-yl)-5,6-dihydropyridin-1(2H)-yl)methyl)-1-(oxetan-2-ylmethyl)-1H-benzo[d]imidazole-6-carboxylic acid]
EC50: ≤ 150 nM

SMILES: O=C(O)c1ccc2nc(CN3CCN(c4ccc5c(n4)N(Cc4ccc(Cl)cc4F)CCC5)CC3)n(C[C@@H]3CCO3)c2c1 [Compound 3, (S)-2-((4-(8-(4-chloro-2-fluorobenzyl)-5,6,7,8-tetrahydro-1,8-naphthyridin-2yl)piperazin-1-yl)methyl)-1-(oxetan-2-ylmethyl)-1 h-benzo[d]imidazole-6-carboxylic acid]
EC50: > 1000 nM

SMILES: O=C(O)c1ccc2nc(CN3CCC(F)(c4cccc(OCc5ccc(Cl)cc5F)n4)CC3)n(C[C@@H]3CCO3)c2c1 [Compound 67, (S)-2-((4-(6-(4-chloro-2-fluorobenzyloxy)pyridin-2-yl)-4-fluoropiperidin-1-yl)methyl)-1-(oxetan-2-ylmethyl)-1H-benzo[d]imidazole-6-carboxylic acid]
EC50: ≤ 150 nM

SMILES: O=C(O)c1ccc2nc(CN3CCN(c4nc(OCc5ccc(Cl)cc5F)ncc4F)CC3)n(C[C@@H]3CCO3)c2c1 [Compound 179, (S)-2-((4-(2-(4-chloro-2-fluorobenzyloxy)-5-fluoropyrimidin-4-yl)piperazin-1-yl)methyl)-1-(oxetan-2-ylmethyl)-1H-benzo[d]imidazole-6-arboxylic acid]
EC50: ≤ 15 nM

SMILES: O=C(O)c1ccc2nc(CN3CCN(c4ccc5ccn(Cc6ccc(Cl)cc6F)c5c4)CC3)n(C[C@@H]3CCO3)c2c1 [Compound 14, (S)-2-((4-(1-(4-chloro-2-fluorobenzyl)-th-indol-6-yl)piperazin-1-yl)methyl)-1-(oxetan-2-ylmethyl)-1 h-benzo[d]imidazole-6-carboxylic acid]
EC50: > 1000 nM

SMILES: O=C(O)c1ccc2nc(CN3CC=C(c4cccc(NC5CCCc6cc(Cl)ccc65)n4)CC3)n(C[C@@H]3CCO3)c2c1 (stereo partly drawn) [Compound 104, 2-((6-((6-chloro-1,2,3,4-tetrahydronaphthalen-1-yl)amino)-36′-dihydro-[2,4′-bipyridin]-1′(2′H)-yl)methyl)-1-(((S)-oxetan-2-yl)methyl)-1H-benzo[d]imidazole-6-carboxylic add]
EC50: ≤ 1000 nM

SMILES: CN(Cc1ccc(Cl)cc1F)c1cccc(N2CCN(Cc3nc4ccc(C(=O)O)cc4n3C[C@@H]3CCO3)CC2)n1 [Compound 2, (S)-2-((4-(6-((4-chloro-2-fluorobenzyl)(methyl)amino)pyridin-2-yl)piperazin-1-yl)methyl)-1-(oxetan-2-ylmethyl)-1 h-benzo[d]imidazole-6-carboxylic acid]
EC50: > 1000 nM

SMILES: N#Cc1ccc(COc2cc(N3CCN(Cc4nc5ccc(C(=O)O)cc5n4C[C@@H]4CCO4)CC3)ccc2F)c(F)c1 [Compound 195, (S)-2-((4-(3-((4-cyano-2-fluorobenzyl)oxy)-4-fluorophenyl)piperazin-1-yl)methyl)-1-(oxetan-2-ylmethyl)-1H-benzo[d]imidazole-6-carboxylic add]
EC50: ≤ 15 nM

Now from value to compound:

EC50: ≤ 15 nM
SMILES: O=C(O)c1ccc2nc(CN3CC=C(c4cccc(OCc5ccc6c(c5)OC(F)(F)O6)n4)CC3)n(C[C@@H]3CCO3)c2c1 [Compound 153, (S)-2-((6-((2,2-difluorobenzo[d][1,3]dioxol-5-yl)methoxy)-3′,6′-dihydro-[2,4′-bipyridin]-1′(2′H)-yl)methyl)-1-(oxetan-2-ylmethyl)-1H-benzo[d]imidazole-6-carboxylic acid]

EC50: ≤ 15 nM
SMILES: O=C(O)c1ccc2nc(CN3CC=C(c4cccc(OCc5ccc(C#CC6CC6)cc5F)n4)CC3)n(C[C@@H]3CCO3)c2c1 [Compound 108, (S)-2-((6-((4-(cyclopropylethynyl)-2-fluorobenzyl)oxy)-3′,6′-dihydro-[2,4′-bipyridin]-1′(2′H)-yl)methyl)-1-(oxetan-2-ylmethyl)-1H-benzo[d]imidazole-6-carboxylic acid]

EC50: ≤ 150 nM
SMILES: Cc1ccc(C2=CCN(Cc3nc4ccc(C(=O)O)cc4n3C[C@@H]3CCO3)CC2)cc1OCc1ccc(Cl)cc1F [Compound 64, (S)-2-((4-(3-((4-chloro-2-fluorobenzyl)oxy)-4-methylphenyl)-3,6-dihydropyridin-1(2H)-yl)methyl)-1-(oxetan-2-ylmethyl)-1H-benzo[d]imidazole-6-carboxylic acid]

EC50: ≤ 150 nM
SMILES: O=C(O)c1ccc2nc(CN3CC=C(c4cccc(OCc5cccc(F)c5)n4)CC3)n(C[C@@H]3CCO3)c2c1 [Compound 156, (S)-2-((6-((3-fluorobenzyl)oxy)-3′,6′-dihydro-[2,4′-bipyridin]-1′(2′H)-yl)methyl)-1-(oxetan-2-ylmethyl)-1H-benzo[d]imidazole-6-carboxylic add]

EC50: ≤ 15 nM
SMILES: O=C(O)c1ccc2nc(CN3CC=C(c4cccc(OCc5cc(Cl)cc(C(F)(F)F)c5)n4)CC3)n(C[C@@H]3CCO3)c2c1 [Compound 143, (S)-2-((6-((3-chloro-5-(trifluoromethyl)benzyl)oxy)-3′,6′-dihydro-[2H′-bipyridin]-1′(2′H)-yl)methyl)-1-(oxetan-2-ylmethyl)-1H-benzo[d]imidazole-6-carboxylic acid]

EC50: ≤ 1000 nM
SMILES: O=C(O)c1ccc2nc(CN3CC=C(c4ccc(=O)n(CCc5ccc(Cl)cc5F)n4)CC3)n(C[C@@H]3CCO3)c2c1 [Compound 20, (S)-2-((4-(1-(4-chloro-2-fluorophenethyl)-6-oxo-1,6-dihydropyridazin-3-yl)-5,6-dihydropyridin-1(2H)-yl)methyl)-1-(oxetan-2-ylmethyl)-1 h-benzo[d]imidazole-6-carboxylic acid]

EC50: ≤ 15 nM
SMILES: CCn1cncc1Cn1c(CN2CC=C(c3cccc(OCc4ccc(C#N)cc4F)n3)CC2)nc2ccc(C(=O)O)cc21 [Compound 182, 2-((6-((4-cyano-2-fluorobenzyl)oxy)-3′,6′-dihydro-[2,4′-bipyridin]-1′(2′H)-yl)methyl)-1-((1-ethyl-1H-imidazol-5-yl)methyl)-1H-benzo[d]imidazole-6-carboxylic acid]

EC50: ≤ 150 nM
SMILES: O=C(O)c1ccc2nc(CN3CC=C(c4cccc(OCc5ccccc5C(F)(F)F)n4)CC3)n(C[C@@H]3CCO3)c2c1 [Compound 135, (S)-1-(oxetan-2-ylmethyl)-2-((6-((2-(trifluoromethyl)benzyl)oxy)-3′,6′-dihydro-[2,4′-bipyridin]-1′(2′H)-yl)methyl)-1H-benzo[d]imidazole-6-carboxylic acid]

EC50: ≤ 15 nM
SMILES: O=C(O)c1ccc2nc(CN3CC=C(c4cccc(OCc5ccc6c(c5)OCCO6)n4)CC3)n(C[C@@H]3CCO3)c2c1 [Compound 151, (S)-2-((6-((2,3-dihydrobenzo[b][1,4]dioxin-6-yl)methoxy)-3′,6′-dihydro-[2,4′-bipyridin]-1′(2′H)-yl)methyl)-1-(oxetan-2-ylmethyl)-1H-benzo[d]imidazole-6-carboxylic add]

EC50: ≤ 15 nM
SMILES: CC(C)c1ccc(COc2cccc(C3=CCN(Cc4nc5ccc(C(=O)O)cc5n4C[C@@H]4CCO4)CC3)n2)cc1 [Compound 148]

EC50: ≤ 15 nM
SMILES: O=C(O)c1ccc2nc(CN3CC=C(c4nc(OCc5ccc(C#CC6CC6)cc5F)ncc4F)CC3)n(C[C@@H]3CCO3)c2c1 [Compound 211, (S)-2-((4-(2-(4-(cyclopropylethynyl)-2-fluorobenzyloxy)-5-fluoropyrimidin-4-yl)-5,6-dihydropyridin-1(2H)-yl)methyl)-1-(oxetan-2-ylmethyl)-1H-benzo[d]imidazole-6-carboxylic acid]

EC50: ≤ 15 nM
SMILES: O=C(O)c1ccc2nc(CN3CC=C(c4cccc(OCc5ccc(F)cc5Cl)n4)CC3)n(C[C@@H]3CCO3)c2c1 [Compound 144, (S)-2-((6-((2-chloro-4-fluorobenzyl)oxy)-3′,6′-dihydro-[2,4′-bipyridin]-1′(2′H)-yl)methyl)-1-(oxetan-2-ylmethyl)-1H-benzo[d]imidazole-6-carboxylic acid]

EC50: ≤ 150 nM
SMILES: O=C(O)c1ccc2nc(CN3CC=C(c4cccc(OCc5ncc(Cl)cn5)n4)CC3)n(C[C@@H]3CCO3)c2c1 [Compound 164, (S)-2-((6-((5-chloropyrimidin-2-yl)methoxy)-3′,6′-dihydro-[2H′-bipyridin]-1′(2′H)-yl)methyl)-1-(oxetan-2-ylmethyl)-1H-benzo[d]imidazole-6-carboxylic acid]

EC50: ≤ 15 nM
SMILES: O=C(O)c1ccc2nc(CN3CC=C(c4nccc(OCc5ccc(C#CC6CC6)cc5F)n4)CC3)n(C[C@@H]3CCO3)c2c1 [Compound 200, (S)-2-((4-(4-((4-(cyclopropylethynyl)-2-fluorobenzyl)oxy)pyrimidin-2-yl)-3,6-dihydropyridin-1(2H)-yl)methyl)-1-(oxetan-2-ylmethyl)-1H-benzo[d]imidazole-6-carboxylic acid]

EC50: ≤ 150 nM
SMILES: O=C(O)c1ccc2nc(CN3CC=C(c4cccc(OCc5cc(Cl)ccc5F)n4)CC3)n(C[C@@H]3CCO3)c2c1 [Compound 140, (S)-2-((6-((5-chloro-2-fluorobenzyl)oxy)-3′,6′-dihydro-[2,4′-bipyridin]-1′(2′H)-yl)methyl)-1-(oxetan-2-ylmethyl)-1H-benzo[d]imidazole-6-carboxylic add]
